Reference: patent US5981558A, “DC107 derivatives” (Kyowa Hakko Kogyo Co., Ltd., priority 1996, dated 1999)
In brackets after ≈: the same amount, converted by molar mass. Where two headings read alike, the source gives them in different places.

Experiments:
[1] = tested on: EH: Enterococcus hirae ATCC 10541; assay: Antimicrobial activity by the agar dilution method (MIC); assay type: cell-based; details: pH 7
Description: (§1) Antimicrobial activity was determined by the agar dilution method using a culture medium (pH 7) prepared by dissolving 3 g of Bacto-Tryptone (manufactured by Difco, Co.), 3 g of meat extract, 1 g of yeast extract, 1 g of glucose, and 16 g of agar in 1 l of water.

[2] = tested on: SA: Staphylococcus aureus ATCC 6538P; assay: as above; assay type: cell-based; details: ATCC6538P
Description: as §1

[3] = tested on: BS: Bacillus substilis No. 10707; assay: as above; assay type: cell-based
Description: as §1

[4] = tested on: KP: Klebisiella pneumoniae ATCC 10031; assay: as above; assay type: cell-based
Description: as §1

[5] = tested on: EC: Escherichia coli ATCC 26; assay: as above; assay type: cell-based
Description: as §1

[6] = tested on: HeLa S3 cells; assay: HeLa S3 Cell Growth Inhibition Test; assay type: cell-based; details: Homo sapiens, 72 hours incubation, Neutral Red
Method in brief: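 HeLa S3 cells seeded overnight in MEM with 10% FBS, then exposed to compound for 72 h at 37 °C. Viable cells stained with Neutral Red, dye extracted, absorbance read at 550 nm; IC50 derived against untreated cells.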

[7] = tested on: Sarcoma 180 mouse solid tumor; assay: Antitumor activity against Sarcoma 180 mouse solid tumor; assay type: in vivo, mouse (ddY); details: Sarcoma-180, iv, 168 h
Description: To a ddY mouse were intraperitoneally transplanted 5×10^6 sarcoma 180 cells. On the seventh day from the transplant, the cells were collected from the ascites, washed once with sterilized physiological saline, and then diluted with sterilized physiological saline to prepare a cell suspension having a concentration of 5×10^7 cells/mL. This suspension was transplanted in an amount of 0.01 mL to a subcutaneous part of the right axilla of each of male ddY mice each weighing 20±1 g.
A test compound was dissolved in physiological saline containing polyoxyethylene sorbitan monolaurate. At 24 hours after the tumor transplant, 0.2 mL of the solution was intravenously administered to the tail of each of a group of five mice.

[8] = Staphylococcus aureus ATCC 6538P, agar dilution, pH 7, read-out: minimum inhibitory concentration (MIC), SA
[9] = Bacillus substilis No. 10707, agar dilution, pH 7, read-out: minimum inhibitory concentration (MIC), BS
[10] = Klebisiella pneumoniae ATCC 10031, agar dilution, pH 7, read-out: minimum inhibitory concentration (MIC), KP
[11] = ATCC26, Escherichia coli ATCC 26, agar dilution, pH 7, read-out: minimum inhibitory concentration (MIC), EC
[12] = HeLa S3, 72 h, HeLa S3, read-out: IC50, HeLa S3 cell growth inhibition
[13] = 16 mg/kg i.v. once, 24 hours after transplant, tumor volume on day 7, read-out: T/C (tumor volume ratio treated/control)
[14] = Staphylococcus aureus, pH 7, read-out: minimum inhibitory concentration (MIC), SA
[15] = Bacillus, pH 7, read-out: minimum inhibitory concentration (MIC), BS
[16] = pH 7, read-out: minimum inhibitory concentration (MIC), KP
[17] = read-out: T/C (tumor volume ratio treated/control)
[18] = HeLa S3, 72 h, read-out: IC50, HeLa S3 cell growth inhibition, HeLa S3
[19] = HeLa S3, read-out: IC50, HeLa S3 cell growth inhibition
[20] = Escherichia coli, ATCC26, pH 7, read-out: minimum inhibitory concentration (MIC), EC

SMILES | minimum inhibitory concentration (MIC), EH [1] | MIC [2, 8] | MIC [3, 9] | MIC [4, 10] | MIC [2, 14] | MIC [3, 15] | MIC [4, 16] | further results
COCCOCC(=O)OCc1oc(=O)oc1CSC(=O)C(C)(O)C12CC/C(C)=C/C(OC3CCCCO3)C(=O)/C=C/C=C\c3csc(n3)C(C)N(C(=O)C1)[S+]2[O-] (stereo not shown) [Compound 100] | 0.33 µg/mL (≈ 0.393 µM) | 0.081 µg/mL (≈ 0.0965 µM) | 0.041 µg/mL (≈ 0.0489 µM) | 0.65 µg/mL (≈ 0.775 µM) | – | – | – | MIC [5, 11]: 2.6 µg/mL (≈ 3.1 µM); IC50 [6, 12]: 18 nM; response vs control in vivo at 16 mg/kg [7, 13]: 30%
C/C1=C\C(O)C(=O)/C=C/C=C\c2csc(n2)C(C)N2C(=O)CC(C(C)(O)C(=O)SCOC(=O)CCCNC(=O)[C@@H]3CCC(=O)N3)(CC1)[S+]2[O-] (stereo partly shown) [Compound 144] | 5.8 µg/mL (≈ 7.87 µM) | – | – | – | 12 µg/mL (≈ 16.3 µM) | 12 µg/mL (≈ 16.3 µM) | 12 µg/mL (≈ 16.3 µM) | response vs control in vivo at 8 mg/kg [7, 17]: 26%
COC(=O)[C@H](CCC(=O)OCSC(=O)C(C)(O)C12CCC(C)=CC(O)C(=O)C=CC=Cc3csc(n3)C(C)N(C(=O)C1)[S+]2[O-])NC(=O)[C@@]12O[C@H]3COC(C)(C)O[C@H]3[C@@H]1OC(C)(C)O2 (stereo partly shown) [Compound 24] | 23 µg/mL (≈ 24.5 µM) | – | – | – | 23 µg/mL (≈ 24.5 µM) | 23 µg/mL (≈ 24.5 µM) | 46 µg/mL (≈ 48.9 µM) | IC50 [6, 18]: 550 nM; response vs control in vivo at 16 mg/kg [7, 17]: 12%
C/C1=C\C(O)C(=O)/C=C/C=C\c2csc(n2)C(C)N2C(=O)CC(C(C)(O)C(=O)SCc3oc(=O)oc3COC(=O)CN(C)C)(CC1)[S+]2[O-] (stereo not shown) [Compound 158] | 0.33 µg/mL (≈ 0.456 µM) | – | – | – | 0.33 µg/mL (≈ 0.456 µM) | < 0.041 µg/mL | 1.3 µg/mL (≈ 1.8 µM) | response vs control in vivo at 32 mg/kg [7, 17]: 31%
CC[Si](CC)(CC)OC[C@H]1OC(OCc2oc(=O)oc2CSC(=O)C(C)(O)C23CC/C(C)=C/C(OC4CCCCO4)C(=O)/C=C/C=C\c4csc(n4)C(C)N(C(=O)C2)[S+]3[O-])C[C@@H](O[Si](CC)(CC)CC)[C@@H]1O[Si](CC)(CC)CC (stereo partly shown) [Compound 82] | 4.2 µg/mL (≈ 3.47 µM) | 2.1 µg/mL (≈ 1.73 µM) | – | 33 µg/mL (≈ 27.2 µM) | – | – | – | IC50 [6, 19]: 800 nM; response vs control in vivo at 16 mg/kg [7, 13]: 36%
C/C1=C\C(O)C(=O)/C=C/C=C\c2csc(n2)C(C)N2C(=O)CC(C(C)(O)C(=O)SCc3oc(=O)oc3CO)(CC1)[S+]2[O-] (stereo not shown) [Compound 86] | 0.16 µg/mL (≈ 0.25 µM) | – | – | – | 0.33 µg/mL (≈ 0.517 µM) | 0.16 µg/mL (≈ 0.25 µM) | 0.16 µg/mL (≈ 0.25 µM) | MIC [5, 20]: 10 µg/mL (≈ 15.7 µM); IC50 [6, 18]: 610 nM
COCOCc1oc(=O)oc1CSC(=O)C(C)(O)C12CC/C(C)=C/C(O)C(=O)/C=C/C=C\c3csc(n3)C(C)N(C(=O)C1)[S+]2[O-] (stereo not shown) [Compound 77] | 0.18 µg/mL (≈ 0.264 µM) | 0.36 µg/mL (≈ 0.527 µM) | 0.36 µg/mL (≈ 0.527 µM) | 0.36 µg/mL (≈ 0.527 µM) | – | – | – | MIC [5, 11]: 11 µg/mL (≈ 16.1 µM); IC50 [6, 12]: 7.7 nM; response vs control in vivo at 8 mg/kg ([7]; 8.0 mg/kg i.v. once, 24 hours after transplant, tumor volume on day 7, read-out: T/C (tumor volume ratio treated/control)): 36%
C/C1=C\C(O)C(=O)/C=C/C=C\c2csc(n2)C(C)N2C(=O)CC(C(C)(O)C(=O)SCOC(=O)CCc3ccc(O)cc3)(CC1)[S+]2[O-] (stereo not shown) [Compound 70] | 0.91 µg/mL (≈ 1.32 µM) | – | – | – | 0.91 µg/mL (≈ 1.32 µM) | 0.057 µg/mL (≈ 0.0827 µM) | 0.91 µg/mL (≈ 1.32 µM) | MIC [5, 20]: 29 µg/mL (≈ 42.1 µM); IC50 [6, 18]: 2.6 nM
C/C1=C\C(OC2CCCCO2)C(=O)/C=C/C=C\c2csc(n2)C(C)N2C(=O)CC(C(C)(O)C(=O)SCc3oc(=O)oc3COC3C[C@H](O[Si](C)(C)C(C)(C)C)[C@@H](O[Si](C)(C)C(C)(C)C)[C@H](C)O3)(CC1)[S+]2[O-] (stereo partly shown) [Compound 80] | 3.4 µg/mL (≈ 3.14 µM) | 3.4 µg/mL (≈ 3.14 µM) | 0.42 µg/mL (≈ 0.388 µM) | 27 µg/mL (≈ 25 µM) | – | – | – | IC50 [6, 19]: 330 nM; response vs control in vivo at 16 mg/kg [7, 13]: 37%
COC(=O)NCC(=O)OCOC1C=C(C)CCC2(C(C)(O)C(=O)SCOC(=O)CNC(=O)OC)CC(=O)N(C(C)c3nc(cs3)C=CC=CC1=O)[S+]2[O-] (stereo not shown) [Compound 18] | 5.7 µg/mL (≈ 7.12 µM) | 11 µg/mL (≈ 13.7 µM) | 11 µg/mL (≈ 13.7 µM) | 2.9 µg/mL (≈ 3.62 µM) | – | – | – | IC50 [6, 12]: 150 nM; response vs control in vivo at 4 mg/kg ([7]; 4.0 mg/kg i.v. once, 24 hours after transplant, tumor volume on day 7, read-out: T/C (tumor volume ratio treated/control)): 38%
C/C1=C\C(O)C(=O)/C=C/C=C\c2csc(n2)C(C)N2C(=O)CC(C(C)(O)C(=O)SCOC(=O)CCCNC(=O)C(C)(CO)CO)(CC1)[S+]2[O-] (stereo not shown) [Compound 139] | 12 µg/mL (≈ 16.2 µM) | – | – | – | 25 µg/mL (≈ 33.7 µM) | 12 µg/mL (≈ 16.2 µM) | 25 µg/mL (≈ 33.7 µM) | response vs control in vivo at 4 mg/kg [7, 17]: 33%
C/C1=C\C(O)C(=O)/C=C/C=C\c2csc(n2)C(C)N2C(=O)CC(C(C)(O)C(=O)SCOC(=O)CCCN3CCCC3=O)(CC1)[S+]2[O-] (stereo not shown) [Compound 145] | 7.7 µg/mL (≈ 11.1 µM) | – | – | – | 15 µg/mL (≈ 21.6 µM) | 7.7 µg/mL (≈ 11.1 µM) | 7.7 µg/mL (≈ 11.1 µM) | response vs control in vivo at 4 mg/kg [7, 17]: 23%
C/C1=C\C(OC2CCCCO2)C(=O)/C=C/C=C\c2csc(n2)C(C)N2C(=O)CC(C(C)(O)C(=O)SCc3oc(=O)oc3COC3C[C@@H](O)[C@H](O)[C@@H](CO)O3)(CC1)[S+]2[O-] (stereo partly shown) [Compound 83] | 0.59 µg/mL (≈ 0.679 µM) | – | – | – | 0.32 µg/mL (≈ 0.368 µM) | 0.037 µg/mL (≈ 0.0426 µM) | 4.7 µg/mL (≈ 5.41 µM) | MIC [5, 20]: 4.7 µg/mL (≈ 5.41 µM); IC50 [6, 18]: 11 nM
COCCOCCOCC(=O)OCSC(=O)C(C)(O)C12CCC(C)=CC(O)C(=O)C=CC=Cc3csc(n3)C(C)N(C(=O)C1)[S+]2[O-] (stereo not shown) [Compound 35] | 0.39 µg/mL (≈ 0.556 µM) | 0.39 µg/mL (≈ 0.556 µM) | 0.39 µg/mL (≈ 0.556 µM) | 0.39 µg/mL (≈ 0.556 µM) | – | – | – | MIC [5, 11]: 13 µg/mL (≈ 18.5 µM); IC50 [6, 12]: 22 nM; response vs control in vivo at 2 mg/kg ([7]; 2.0 mg/kg i.v. once, 24 hours after transplant, tumor volume on day 7, read-out: T/C (tumor volume ratio treated/control)): 44%
COC(=O)[C@H](CCC(=O)OCSC(=O)C(C)(O)C12CC/C(C)=C/C(O)C(=O)/C=C/C=C\c3csc(n3)C(C)N(C(=O)C1)[S+]2[O-])NC(=O)[C@@]12O[C@@H](CO)[C@@H](O)[C@@H]1OC(C)(C)O2 (stereo partly shown) [Compound 60] | 7.3 µg/mL (≈ 8.11 µM) | – | – | – | 15 µg/mL (≈ 16.7 µM) | 15 µg/mL (≈ 16.7 µM) | 15 µg/mL (≈ 16.7 µM) | IC50 [6, 18]: 550 nM; response vs control in vivo at 8 mg/kg [7, 17]: 31%
COC(=O)[C@H](CCC(=O)OCSC(=O)C(C)(O)C12CC/C(C)=C/C(O)C(=O)/C=C/C=C\c3csc(n3)C(C)N(C(=O)C1)[S+]2[O-])NC(=O)C1CCC(=O)N1 (stereo partly shown) [Compound 143] | 0.29 µg/mL (≈ 0.365 µM) | – | – | – | 0.29 µg/mL (≈ 0.365 µM) | 0.29 µg/mL (≈ 0.365 µM) | 0.59 µg/mL (≈ 0.742 µM) | MIC [5, 20]: 19 µg/mL (≈ 23.9 µM); response vs control in vivo at 8 mg/kg [7, 17]: 27%
COC(=O)NCC(=O)OCSC(=O)C(C)(O)C12CCC(C)=CC(O)C(=O)C=CC=Cc3csc(n3)C(C)N(C(=O)C1)[S+]2[O-] (stereo not shown) [Compound 17] | 1.3 µg/mL (≈ 1.98 µM) | 0.65 µg/mL (≈ 0.991 µM) | 0.65 µg/mL (≈ 0.991 µM) | 0.65 µg/mL (≈ 0.991 µM) | – | – | – | MIC [5, 11]: 42 µg/mL (≈ 64 µM); IC50 [6, 12]: 15 nM
